Entries after “also recorded” stand apart in the source; their conditions may differ.
Legend:
CD-1 female mice = test: Ovarian cyclicity by vaginal smear in 21-day-old treated mice; assay type: in vivo; settings: 21-day-old mice, last 14 days of 6 weeks post treatment
From the text: The transition of various estrous cycle stages of three representative mice (a total of 6-8 mice in each group) are shown for each treatment group, including proestrus, estrus, metestrus, and diestrus.
Ovarian cyclicity was next examined by the method of vaginal smear in the last 14 days of the 6-week post DOX / SP600125 treatment.

TAp63α = test: Phosphorylation of TAp63α in ovaries, immunostaining and western blot; assay type: in vivo, CD-1 female mice
Experimental: (§1) FIG. 2B provides a western blot showing expression of γH2AX and pTAp63α at 3 h and 6 h. The mobility shift of TAp63α indicated phosphorylation (i.e., p-TAp63α), which further indicated cell death initiation through apoptosis.
TAp63a functions to respond to DNA damage that results in its phosphorylation and subsequent oocyte apoptosis initiation in the primordial follicles.
(§2) Next, 5-day-old CD-1 female mice were intraperitoneally injected with 10 mg/kg DOX and 50 mg/kg SP600125, a specific JNK inhibitor.

Bax, Puma, Noxa = test: qRT-PCR of apoptosis mediators in whole neonatal ovaries; assay type: in vivo, CD-1 female mice; settings: co-treatment with DOX
Experimental: as §2

primordial follicles = test: DOX-induced primordial follicle loss in 5-day-old mice; assay type: in vivo, CD-1 female mice; settings: co-treatment SP600125 50 mg/kg with DOX 10 mg/kg i.p.
Experimental: as §2

ovarian follicles = test: Follicle counting 6 weeks after treatment of 21-day-old mice; assay type: in vivo, CD-1 female mice
From the text: Ovarian functions were examined at 6-weeks after treatment in order to evaluate the long-term effect of pharmacological JNK inhibition on female ovarian reserve and other ovary reproductive outcomes.

JNK = test: Phosphorylation of JNK in oocytes of primordial follicles, western blot and immunostaining; assay type: in vivo, CD-1 female mice; settings: for activation of JNK in the oocytes of primordial follicles: general statement, no dose given
γ-H2AX = test: Ovarian expression of γ-H2AX (DNA damage marker) after DOX, immunostaining and western blot; assay type: in vivo
Experimental: as §1
Expression of γ-H2AX, a well-characterized biomarker of DNA double strand breaks (DDSBs) as well as the major mechanism of DOX’s cytotoxicity on tumorous cells, was detected with administration of DOX.

[1] = tested on: JNK (c-Jun N-terminal kinase) signaling pathway; test: RNA sequencing / Gene Ontology analysis of ovaries after DOX; assay type: in vivo, CD-1 female mice; settings: 5-day-old mice, DOX 10 mg/kg i.p., ovaries at 6 hours
Experimental: Thus, the molecular mechanisms of DOX-induced primordial follicle oocyte apoptosis were investigated as described herein. Fiveday-old CD-1 female mice were intraperitoneally injected with vehicle or 10 mg/kg DOX and ovaries were harvested at 6 hours for RNA sequencing.

With O=C1c2ccccc2-c2n[nH]c3cccc1c23 [SP600125, dibenzo[cd,g]indazol-6(2H)-one] the “ovarian cyclicity (estrous cycle stages)” value (CD-1 female mice; DOX / SP600125 co-treatment) was “comparable ovarian cyclicity to the control group”, the “ovarian cyclicity (estrous cycle stages)” value (CD-1 female mice; SP600125 alone) was “comparable ovarian cyclicity to the control group” and the “effect on DOX-induced hyper-phosphorylation of TAp63α” value (TAp63α; 5-day-old mice, SP600125 50 mg/kg i.p. with DOX 10 mg/kg i.p., western blot) was “effectively prevented; also recorded: blocked the phosphorylation”. The “effect on cisplatin-induced phosphorylation of TAp63α” value (TAp63α; 5-day-old mouse ovaries, SP600125 50 mg/kg i.p. with cisplatin 20 mg/kg i.p.) was “blocked the phosphorylation”, the “effect on DOX-induced transcriptional induction of Bax” value (Bax, Puma, Noxa) was “prevented the transcriptional induction” and the “effect on DOX-induced transcriptional induction of Noxa” value (Bax, Puma, Noxa) was “prevented the transcriptional induction”. For the same compound, the “effect on DOX-induced transcriptional induction of Puma” value (Bax, Puma, Noxa) was “prevented the transcriptional induction”, the “effect on DOX-induced primordial follicle loss” value (primordial follicles) was “significantly ameliorated; also recorded: prevented DOX-induced primordial follicle loss” and the “numbers of all staged follicles” value (ovarian follicles; SP600125 alone) was “did not affect”. The “effect on DOX-induced reduction of all stages of follicles” value (ovarian follicles; co-treatment with DOX) was “effectively prevented the reduction”.
N.N.[Cl][Pt][Cl] [cisplatin, cis-diammineplatinum (II) dichloride] was tested, and the “activation of JNK in the oocytes of primordial follicles” value (JNK) was “selectively activate”.
With COc1cccc2c1C(=O)c1c(O)c3c(c(O)c1C2=O)C[C@@](O)(C(=O)CO)C[C@@H]3O[C@H]1C[C@H](N)[C@@H](O)[C@H](C)O1 [DOX, (8S,10S)-10-(((2R,4S,5R,6S)-4-amino-5-hydroxy-6-methyltetrahydro-2H-pyran-2-yl)oxy)-6,8,11-trihydroxy-8-(2-hydroxyacetyl)-1-methoxy-7,8,9,10-tetrahydrotetracene-5,12-dione] the “expression of γ-H2AX in ovarian epithelial cells and oocytes” value (γ-H2AX; DOX 10 mg/kg i.p., 6 h) was “significantly increased”, the “time at which increased γ-H2AX expression peaked” value (γ-H2AX; after DOX treatment, western blot) was 6 h and the “ovarian cyclicity (estrous cycle stages)” value (CD-1 female mice; DOX alone) was “interfered with mouse ovarian cyclicity”. The “phosphorylation of TAp63a in ovaries” value (TAp63α; 6 h after DOX treatment, western blot) was “hyper-phosphorylated”, the “expression of phospho-p63 in oocytes of primordial follicles” value (TAp63α; 6 h post DOX treatment, immunostaining) was “significantly induced” and the “phosphorylation of JNK in the oocytes of primordial follicles” value (JNK; 5-day-old mice, DOX 10 mg/kg i.p., 6 h) was “selectively increased; also recorded: selective hyper-phosphorylation”. The “activation of JNK in the oocytes of primordial follicles” value (JNK) was “selectively activate”, the “numbers of all stages of ovarian follicles (primordial, primary, secondary, antral)” value (ovarian follicles; DOX alone) was “remarkably reduced” and the “JNK signaling pathway by RNA sequencing Gene Ontology analysis” value [1] was “significantly changed; also recorded: activated”.

From patent publication US20230062911A1, “COMPOSITIONS AND METHODS FOR TREATING, PREVENTING, AND/OR AMELIORATING CHEMOTHERAPY-INDUCED PREMATURE OVARIAN FAILURE (POF)” (Rutgers, The State University of New Jersey, priority 2021, published 2023)
